Values joined by “and” are separate entries in the source; they are usually repeats but may differ in a detail not shown here. Equal entries are not always repeated.
Tests used:
Conditions in all cases: incubation time: 72 h
[1] = tested on: CAL-51; assay: normalised viability (% of control), CellTiter-Blue; higher = more viable cells (about 100 = DMSO control)
Description: (§1)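 DSRT, CellTiter-Blue viability, 72 h incubation. Signal is normalised to DMSO and benzethonium chloride controls. Value is the normalised response at dose 9.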

[2] = tested on: MDA-MB-453; assay: as above
Description: as §1

[3] = tested on: CAL-85-1; assay: as above
Description: as §1

[4] = tested on: CAL-148; assay: as above
Description: as §1

[5] = tested on: DU-4475; assay: as above
Description: as §1

[6] = tested on: HDQ-P1; assay: as above
Description: as §1

[7] = tested on: HCC1937; assay: normalised response (% of control), CellTiter-Glo; higher = more viable cells (100 = DMSO, 0 = benzethonium chloride kill control)
Outline: (§2)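 Compound was dispensed into 384-well plates at 5 concentrations in 10-fold steps spanning a 10,000-fold range specific to that compound. Breast cancer cell lines were added as 20 µl suspension and left for 72 h before CellTox Green fluorescence (485/520 nm) and then CellTiter-Glo luminescence, read after 10 min at room temperature. Each reported value is the normalised signal at one concentration, with 0.1 % DMSO set at 100 and a positive kill control at 0 on each plate.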

[8] = tested on: BT-474; assay: as above
Outline: as §2

[9] = tested on: MDA-MB-468; assay: as above
Outline: as §2

[10] = tested on: CAL-51; assay: as above
Outline: as §2

[11] = tested on: MDA-MB-453; assay: as above
Outline: as §2

[12] = tested on: CAL-85-1; assay: as above
Outline: as §2

[13] = tested on: MDA-MB-231; assay: as above
Outline: as §2

[14] = tested on: SK-BR-3; assay: as above
Outline: as §2

[15] = tested on: HCC1599; assay: as above
Outline: as §2

[16] = tested on: CAL-120; assay: as above
Outline: as §2

[17] = tested on: CAL-148; assay: as above
Outline: as §2

[18] = tested on: Hs578T; assay: as above
Outline: as §2

[19] = tested on: DU-4475; assay: as above
Outline: as §2

[20] = tested on: HCC1143; assay: as above
Outline: as §2

[21] = tested on: HDQ-P1; assay: as above
Outline: as §2

[22] = tested on: MFM-223; assay: as above
Outline: as §2

[23] = tested on: BT-549; assay: as above
Outline: as §2

[24] = tested on: MDA-MB-436; assay: as above
Outline: as §2

[25] = tested on: MCF-10A; assay: as above
Outline: as §2

[26] = tested on: HCC1937; assay: normalised viability (% of control), CellTiter-Blue; higher = more viable cells (100 = DMSO, 0 = benzethonium chloride kill control)
Description: (§3)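 DSRT, CellTiter-Blue viability, 72 h incubation. Signal is normalised to DMSO and benzethonium chloride controls. Value is the normalised response at dose 1.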

[27] = tested on: MDA-MB-468; assay: as above
Description: as §3

[28] = tested on: CAL-51; assay: as above
Description: as §3

[29] = tested on: MDA-MB-453; assay: as above
Description: as §3

[30] = tested on: CAL-85-1; assay: as above
Description: as §3

[31] = tested on: MDA-MB-231; assay: as above
Description: as §3

[32] = tested on: SK-BR-3; assay: as above
Description: as §3

[33] = tested on: HCC1599; assay: as above
Description: as §3

[34] = tested on: CAL-120; assay: as above
Description: as §3

[35] = tested on: CAL-148; assay: as above
Description: as §3

[36] = tested on: Hs578T; assay: as above
Description: as §3

[37] = tested on: DU-4475; assay: as above
Description: as §3

[38] = tested on: HCC1143; assay: as above
Description: as §3

[39] = tested on: HDQ-P1; assay: as above
Description: as §3

[40] = tested on: MFM-223; assay: as above
Description: as §3

[41] = tested on: BT-549; assay: as above
Description: as §3

[42] = tested on: MDA-MB-436; assay: as above
Description: as §3

[43] = tested on: CAL-51; assay: normalised viability (% of control), CellTiter-Blue; higher = more viable cells (about 100 = DMSO control); remark: listed apart in the source
Description: (§4)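 DSRT, CellTiter-Blue viability, 72 h incubation. Signal is normalised to DMSO and benzethonium chloride controls. Value is the normalised response at dose 8.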

[44] = tested on: MDA-MB-453; assay: as above; remark: listed apart in the source
Description: as §4

[45] = tested on: CAL-85-1; assay: as above; remark: listed apart in the source
Description: as §4

[46] = tested on: CAL-148; assay: as above; remark: listed apart in the source
Description: as §4

[47] = tested on: HDQ-P1; assay: as above; remark: listed apart in the source
Description: as §4

In the case of `COc1c2occc2cc2ccc(=O)oc12` [Methoxsalen] (10000 nM), the normalised viability [1] was 49.2%, the normalised viability [2] was 28.5% and the normalised viability [3] was 61%. It also gave a normalised viability [4] of 53.6%, a normalised viability [5] of 71.6% and a normalised viability [6] of 128%.
`C=CCN(/C=C1/C(=O)O[C@H](COC)[C@@]2(C)C1=C(O)C(=O)C1=C2[C@H](OC(C)=O)C[C@]2(C)C(=O)CC[C@@H]12)CC=C` [PX-866] (10000 nM) showed a normalised viability [1] of 97.8%, a normalised viability [2] of 70.2% and a normalised viability [3] of 88.9%. The normalised viability [4] was 112%, the normalised viability [5] was 88% and the normalised viability [6] was 53.2%.
For `CC[C@H](CO)Nc1nc(NCc2ccccc2)c2ncn(C(C)C)c2n1` [Roscovitine] (10000 nM), the normalised viability [1] was 85%, the normalised viability [2] was 63.4% and the normalised viability [3] was 61.9%. It also gave a normalised viability [4] of 80.8%, a normalised viability [5] of 96.6% and a normalised viability [6] of 75.6%.
In the case of `O=C(CCCCCCC(=O)Nc1ccccc1)NO` [Vorinostat] (1 nM), the normalised response [7] was 99%, the normalised response [8] was 93.1% and the normalised response [9] was 96%. The normalised response [10] was 80.8%, the normalised response [11] was 97.9% and the normalised response [12] was 104%. The normalised response [13] was 94.8%, the normalised response [14] was 88% and the normalised response [15] was 94.1%. The normalised response [16] was 95.9%, the normalised response [17] was 102% and the normalised response [18] was 97.5%. For the same compound, the normalised response [19] was 98.4%, the normalised response [20] was 91.1% and the normalised response [21] was 104%. For the same compound, the normalised response [22] was 102%, the normalised response [23] was 108% and the normalised response [24] was 98.3%. The normalised response [25] was 92.1%, the normalised viability [26] was 102% and 89.7% and the normalised viability [27] was 109%. The normalised viability [28] was 103% and 96%, the normalised viability [29] was 106% and the normalised viability [30] was 91.5% and 104%. For the same compound, the normalised viability [31] was 89.6% and 94.1%, the normalised viability [32] was 89.7% and 91.5% and the normalised viability [33] was 97.8% and 94.4%. The normalised viability [34] was 83.4% and 95.8%, the normalised viability [35] was 89.8% and 101% and the normalised viability [36] was 108% and 97.3%. For the same compound, the normalised viability [37] was 100% and 106%, the normalised viability [38] was 94.7% and 100% and the normalised viability [39] was 84.8% and 99.5%. The normalised viability [40] was 90% and 100%, the normalised viability [41] was 94.4% and 117% and the normalised viability [42] was 101% and 100%.
In the case of `O=C(CCCCCCC(=O)Nc1ccccc1)NO` [Vorinostat] (3000 nM), the normalised viability [43] was 101% and 94.8%, the normalised viability [44] was 12.2% and 9.84% and the normalised viability [45] was 59.5% and 66.1%. For the same compound, the normalised viability [46] was 49.7% and 59.7% and the normalised viability [47] was 68.1% and 62.5%.

Reference: the supplement of paper PMC4862054
